Results published in US20260053861A1, “CELL COMPOSITIONS AND METHODS OF USING THE SAME” (THE REGENTS OF THE UNIVERSITY OF CALIFORNIA, priority 2022, published 2026).
Structures can show the parent of a compound that is named as a salt. Where two headings read alike, the source gives them in different places.

Tested on: hPSC-SCs
[1] = HTS viability of hPSC-SCs in the presence of 30 mM glucose, Prestwick library, Table S4

Row | Compound | z.score.t [1] | z.score.t
1 | CC(C)[N+](C)(CCC(C(N)=O)(c1ccccc1)c1ccccc1)C(C)C [Isopropamide iodide] | 0.3675 | 
2 | Cc1cccc(C)c1NC(=O)CN1CCN(CCCC(c2ccc(F)cc2)c2ccc(F)cc2)CC1 [Lidoflazine] | −1.03 | 
3 | CN(C)CC/C=C1/c2ccccc2Sc2ccc(Cl)cc21 [Chlorprothixene hydrochloride] | −0.6678 | 
4 | CCO.C[C@H]1c2cccc(O)c2C(O)=C2C(=O)[C@]3(O)C(O)=C(C(N)=O)C(=O)[C@@H](N(C)C)[C@@H]3[C@@H](O)[C@@H]21.C[C@H]1c2cccc(O)c2C(O)=C2C(=O)[C@]3(O)C(O)=C(C(N)=O)C(=O)[C@@H](N(C)C)[C@@H]3[C@@H](O)[C@@H]21.Cl.Cl.O [Doxycycline hyclate] | 1.148 | 
5 | CCC(=O)OCC(=O)[C@@]1(OC(=O)CC)[C@H](C)C[C@H]2[C@H]3[C@H]([C@@H](O)C[C@@]21C)[C@@]1(C)C=CC(=O)C=C1C[C@H]3Cl [Alclometasone dipropionate] |  | 1.456
6 | CN1[C@@H]2C[C@@H](OC(=O)[C@H](CO)c3ccccc3)C[C@H]1[C@@H]1O[C@@H]12 [Scopolamine hydrochloride] |  | 0.07936
7 | O=C1CN(/N=C/c2ccc([N+](=O)[O-])o2)C(=O)N1 [Nitrofurantoin] | −0.03449 | 
8 | CC[C@H]1CN2CC[C@H]1C[C@H]2[C@H](O)c1ccnc2ccc(OC)cc12 [Hydroquinine hydrobromide hydrate] | 0.1131 | 
9 | C[C@H](N)[C@H](O)c1cccc(O)c1 [Metaraminol bitartrate] | 1.088 | 
10 | Helveticoside |  | 1.053
11 | O=C(O)CCNC(=O)c1ccc(/N=N/c2ccc(O)c(C(=O)O)c2)cc1 [Balsalazide Sodium] | 0.7914 | 
12 | CN(N=O)C(=O)N[C@H]1C(O)O[C@H](CO)[C@@H](O)[C@@H]1O (mixture of isomers) [Streptozotocin] |  | 0.03421
13 | CCN(CC)CC(=O)Nc1c(C)cccc1C.Cl [LidocaÂ<ne hydrochloride] |  | −0.01953
14 | COC1=CC(=O)C[C@@H](C)[C@]12Oc1c(Cl)c(OC)cc(OC)c1C2=O [Griseofulvin] | −0.636 | 
15 | O=C1OC(CN2CCOCC2)CN1/N=C/c1ccc([N+](=O)[O-])o1 (stereo not shown) [Furaltadone hydrochloride] | 2.34 | 
16 | Nc1c2c(nc3ccccc13)CCCC2 [Tacrine hydrochloride hydrate] | −0.7049 | 
17 | O=C1C[C@@H](c2ccc(O)cc2)Oc2cc(O)cc(O)c21 [Naringenine] | 1.539 | 
18 | Cl.NCC(O)c1ccc(O)cc1 (racemic) [(+, −)-Octopamine hydrochloride] |  | 0.6574
19 | C[C@@H]1C[C@H]2[C@@H]3C[C@H](F)C4=CC(=O)C=C[C@]4(C)[C@@]3(Cl)[C@@H](O)C[C@]2(C)[C@H]1C(=O)COC(=O)C(C)(C)C [Clocortolone pivalate] | −0.7388 | 
20 | CN1CCC2(C)c3cc(O)ccc3N(C)C12.O=C(O)/C=C/C(=O)O (single isomer, unassigned; (-)) [(−)-Eseroline fumarate salt] |  | −1.336
21 | S=C(NC1CCCCC1)N1CCC(c2cnc[nH]2)CC1 [Thioperamide maleate] | 0.8825 | 
22 | Cc1ccccc1N1C(=O)c2cc(S(N)(=O)=O)c(Cl)cc2NC1C (stereo not shown) [Metolazone] | 0.3637 | 
23 | CC1(C)[C@@H](OC(=O)CCC(=O)O)CC[C@]2(C)[C@H]3C(=O)C=C4[C@@H]5C[C@@](C)(C(=O)O)CC[C@]5(C)CC[C@@]4(C)[C@]3(C)CC[C@@H]12 [Carbenoxolone disodium salt] | 1.163 | 
24 | COC(=O)Nc1nc2ccc(C(=O)c3ccccc3)cc2[nH]1 [Mebendazole] | −1.584 | 
25 | NC[C@@H]1O[C@H](O[C@H]2[C@@H](O)[C@H](O[C@@H]3[C@@H](O)[C@H](N)C[C@H](N)[C@H]3O[C@H]3O[C@H](CN)[C@@H](O)[C@H](O)[C@H]3N)O[C@@H]2CO)[C@H](N)[C@@H](O)[C@@H]1O.O=S(=O)(O)O [Neomycin sulfate] | −0.6492 | 

Row | Compound | z.score.t [1] | z.score.t
26 | N=C(N)N/N=C/c1c(Cl)cccc1Cl [Guanabenz acetate] | 0.5179 | 
27 | OC(CCN1CCCC1)(c1ccccc1)C1CCCCC1 (stereo not shown) [Procyclidine hydrochloride] | −0.0788 | 
28 | CN(C)CCCC1(c2ccc(F)cc2)OCc2cc(C#N)ccc21 (stereo not shown) [Citalopram Hydrobromide] | −0.5169 | 
29 | CCCCOc1ccc(OCCCN2CCOCC2)cc1 [Pramoxine hydrochloride] | −1.058 | 
30 | CN1C2CC(=O)CC1C(O)C2 (stereo not shown) [6-Hydroxytropinone] |  | −0.3867
31 | O=C(O)C1CCCNC1 (racemic) [(ñ)-Nipecotic acid] |  | −0.7376
32 | CCN(CC)CCCC(C)Nc1ccnc2cc(Cl)ccc12 (stereo not shown) [Chloroquine diphosphate] |  | 0.7847
33 | CC(C)(C)NC(=O)[C@H]1CC[C@H]2[C@@H]3CC[C@H]4NC(=O)C=C[C@]4(C)[C@H]3CC[C@]12C [Finasteride] | −0.9741 | 
34 | C[C@@H]1CCC[C@H](C)N1NC(=O)c1ccc(Cl)c(S(N)(=O)=O)c1 [Clopamide] | 0.7847 | 
35 | CC(COc1ccccc1)NC(C)C(O)c1ccc(O)cc1 (stereo not shown) [Isoxsuprine hydrochloride] | −0.1687 | 
36 | CS(=O)(=O)c1ccc([C@@H](O)[C@@H](CF)NC(=O)C(Cl)Cl)cc1 [Florfenicol] | 0.5365 | 
37 | OC(CCCN1CCCCC1)(c1ccccc1)c1ccccc1 [Diphenidol hydrochloride] | 0.9906 | 
38 | CCCCC1C(=O)N(c2ccccc2)N(c2ccc(O)cc2)C1=O (stereo not shown) [Oxyphenbutazone] | −0.8111 | 
39 | CC(CNC1CCCCC1)OC(=O)c1ccccc1 (stereo not shown) [Hexylcaine hydrochloride] | −0.6194 | 
40 | O=C(O)c1cc(=O)c2c(OCC(O)COc3cccc4oc(C(=O)O)cc(=O)c34)cccc2o1 [Cromolyn disodium salt] | 0.557 | 
41 | CCC(=O)O[C@@](Cc1ccccc1)(c1ccccc1)[C@@H](C)CN(C)C [Levopropoxyphene napsylate] |  | −0.5351
42 | CC(C)c1cccc(C(C)C)c1O [Propofol] |  | −0.411
43 | OCCN1CCN(CCCN2c3ccccc3Sc3ccc(C(F)(F)F)cc32)CC1 [Fluphenazine dihydrochloride] | −1.847 | 
44 | CC[N+]1(C)CCCC(OC(=O)C(O)(c2ccccc2)c2ccccc2)C1 (stereo not shown) [Pipenzolate bromide] | 0.4318 | 
45 | COc1ccccc1OCC(O)CN1CCN(CC(=O)Nc2c(C)cccc2C)CC1 (stereo not shown) [Ranolazine] | 1.442 | 
46 | C[N+]1(CCCCC[N+]2(C)CCCC2)CCCC1.O=C([O-])C(O)C(O)C(=O)O.O=C([O-])C(O)C(O)C(=O)O [Pentolinium bitartrate] |  | 0.2038
47 | O=C(CCCN1CC=C(n2c(=O)[nH]c3ccccc32)CC1)c1ccc(F)cc1 [Droperidol] | 1.197 | 
48 | CC[C@H](CC[C@@H](C)[C@H]1CC[C@H]2[C@@H]3CC=C4C[C@@H](O)CC[C@]4(C)[C@H]3CC[C@]12C)C(C)C [Beta-sistosterol] |  | 0.1543
49 | CCCNC(C)C(=O)Nc1ccccc1C (stereo not shown) [Prilocaine hydrochloride] | 1.984 | 
50 | CCCCN(CCCC)CCCOC(=O)c1ccc(N)cc1 [Butacaine] | −0.3023 | 

Row | Compound | z.score.t [1] | z.score.t
51 | CCC1(c2ccc(N)cc2)CCC(=O)NC1=O (stereo not shown) [Glutethimide, para-amino] |  | 0.1149
52 | CC1CC(OC(=O)c2ccccc2O)CC(C)(C)C1 (stereo not shown) [Homosalate] | −0.751 | 
53 | CN1C(C)(C)CCCC1(C)C [Pempidine tartrate] | −0.5583 | 
54 | Cc1c(NC(=O)c2cccnc2)c(=O)n(-c2ccccc2)n1C [Nifenazone] | −0.2425 | 
55 | COc1cc([C@@H]2c3cc4c(cc3[C@@H](O[C@@H]3O[C@@H]5CO[C@@H](C)O[C@H]5[C@H](O)[C@H]3O)[C@H]3COC(=O)[C@H]23)OCO4)cc(OC)c1O [Etoposide] | −1.576 | 
56 | COc1ccc2cc(CCC(C)=O)ccc2c1 [Nabumetone] | 0.5365 | 
57 | C[C@H](CCC(=O)O)[C@H]1CC[C@H]2[C@@H]3CC[C@@H]4C[C@H](O)CC[C@]4(C)[C@H]3CC[C@]12C [Lithocholic acid] | −0.7945 | 
58 | Cc1ccsc1/C=C/C1=NCCCN1C [Morantel tartrate] |  | −0.06439
59 | Cc1[nH]ccc2c1[nH]c1cc(=O)ccc12 [Harmol hydrochloride monohydrate] |  | −0.7233
60 | OCCN1CCN(CCCN2c3ccccc3Sc3ccc(Cl)cc32)CC1 [Perphenazine] | −1.746 | 
61 | Cc1cc(NC(=O)C2=C(O)c3ccccc3S(=O)(=O)N2C)no1 [Isoxicam] | 1.24 | 
62 | C[C@]12CCC(=O)C=C1C=C[C@@H]1[C@@H]2CC[C@@]2(C)[C@H]1CC[C@@]2(O)CCC(=O)O [Canrenoic acid potassium salt] | 0.05523 | 
63 | CC(NCCc1ccc(O)cc1)C(O)c1ccc(O)cc1 (stereo not shown) [Ritodrine hydrochloride] | 0.5046 | 
64 | NC(=NCc1ccccc1)NC(=O)c1nc(Cl)c(N)nc1N [Benzamil hydrochloride] | −1.515 | 
65 | CC(C)(CO)[C@@H](O)C(=O)NCCCO [Panthenol (D)] | 0.6517 | 
66 | COc1c(O)cc2c(c1O)[C@@H]1O[C@H](CO)[C@@H](O)[C@H](O)[C@H]1OC2=O [Bergenin monohydrate] | 1.238 | 
67 | O=C(NCCN1CCOCC1)c1ccc(Cl)cc1 [Moclobemide] | 0.5822 | 
68 | CN(C(=O)C(Cl)Cl)c1ccc(OC(=O)c2ccco2)cc1 [Diloxanide furoate] | 1.069 | 
69 | Nc1nc2ncc(CNc3ccc(C(=O)N[C@@H](CCC(=O)O)C(=O)O)cc3)nc2c(=O)[nH]1 [Folic acid] | 0.7312 | 
70 | CC1(C)S[C@@H]2[C@H](NC(=O)[C@H](N)c3ccccc3)C(=O)N2[C@H]1C(=O)O [Ampicillin trihydrate] | 1.287 | 
71 | NC(=O)c1ncn([C@@H]2O[C@H](CO)[C@@H](O)[C@H]2O)n1 [Ribavirin] | 2.03 | 
72 | COc1ccc2c(c1OC)C(=O)O[C@@H]2[C@H]1c2c(cc3c(c2OC)OCO3)CCN1C [Noscapine] | −0.3731 | 
73 | Cc1nnc(SCC2=C(C(=O)O)N3C(=O)[C@@H](NC(=O)Cn4cnnn4)[C@H]3SC2)s1 [Cefazolin sodium salt] | −0.6194 | 
